Laboratory results reported in patent US6355799B1, “Substituted benzene compounds, process for their preparation, and herbicidal and defoliant compositions containing them” (ISK Americas Incorporated, priority 1997, dated 2002).

Legend:
Format in all cases: in vivo
[1] = tested on: upland rice (Oryza sp., var. Tebonnet, RICE); experiment: Post-emerge test, crop safety; settings: post-emerge, 14 days after application, rating scale 0-100
In short: (§1)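 Visual ratings on a 0-100 scale (0 no damage, 100 all plants dead) were taken at 14 days after treatment. Rates of 15-1000 g ai/ha in acetone, 187 l/ha, were sprayed onto soil one day after planting (pre-emerge) or onto 2-3 leaf plants with 0.25% v/v surfactant (post-emerge).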

[2] = tested on: field corn (Zea mays L., var. Dekalb 535, CORN); experiment: Post-emerge test, crop safety; settings: post-emerge, 14 days after application, rating scale 0-100
In short: as §1

[3] = tested on: upland rice (Oryza sp., var. Tebonnet, RICE); experiment: Pre-emerge test, crop safety; settings: crop damage rating 0-100, 14 days after application
In short: (§2)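 Fourteen days after spraying, crop and weed injury was graded visually from 0, no effect, to 100, every plant dead. Test substances were dissolved in acetone and applied at 15–1000 g ai/ha with a flat-fan nozzle. Application was either pre-emergence, one day after sowing, or post-emergence at the 2–3 leaf stage.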

[4] = tested on: field corn (Zea mays L., var. Dekalb 535, CORN); experiment: Pre-emerge test, crop safety; settings: crop damage rating 0-100, 14 days after application
In short: as §2

[5] = tested on: redroot pigweed (Amaranthus retroflexus, AMARE); experiment: Pre-emerge test, greenhouse herbicide activity screening; settings: phytotoxicity rating 0-100, 14 days after application
In short: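 Herbicidal damage is scored 0 (none) to 100 (complete plant death) two weeks after a simulated field spray. Rates span 15–1000 g ai/ha, delivered in acetone at 187 l/ha. For post-emergence treatments, plants have 2–3 leaves and the spray carries 0.25% v/v non-ionic surfactant.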

[6] = tested on: velvetleaf (Abutilon theophrasti, ABUTH); experiment: as above; settings: phytotoxicity rating 0-100, 14 days after application
Excerpt: (§3) A standard greenhouse herbicide activity screening system was used to evaluate the herbicidal efficacy and crop safety of these test compounds. Seven broadleaf weed species including redroot pigweed (Amaranthus retroflexus, AMARE, velvetleaf (Abutilon theophrasti, ABUTH), sicklepod (Cassia obtusifolia, CASOB), ivyleaf morningglory (Ipomoea hederacea, IPOHE), lambsquarters (Chenopodium album, CHEAL), common ragweed (Ambrosia artemisizfolia L., AMBEL), and cocklebur (Xanthium strumarium, XANST) were used as test species. Four grass weed species including green foxtail (Setaria viridis, SETVI), barnyardgrass (Echinochloa crus-galli, ECHCG), johnsongrass (Sorghum halepense, SORHA), and large crabgrass (Digitaria sanguinalis, DIGSA) were also used. In addition, three crop species, field corn (Zea mays L., var. Dekalb 535, CORN), soybean (Glycine max L., var. Pella 86, SOY), and is upland rice (Oryza sp., var. Tebonnet, RICE) were included.
(§4) All plants were grown in 10 cm square plastic pots which were filled with a sandy loam soil mix. For pre-emerge tests, seeds were planted one day prior to application of the test compounds. For post-emerge tests, seeds were planted 8-21 days prior to the test to allow emergence and good foliage development prior to application of the test substances. At the time of the post-emerge application, plants of all species were usually at the 2-3 leaf stage of development.
(§5) All test compounds Were dissolved in acetone and applied to the test units in a volume of 187 l /ha. Test materials were applied at rates ranging from 15 g ai/ha to 1000 g ai/ha using a track sprayer equipped with a TJ8001E even flow flat fan spray nozzle. Plants were arranged on a shelf so that the top of the canopy (post-emerge) or top of the soil surface (pre-emerge) was 40-45 cm below the nozzle. Pressurized air was used to force the test solution through the nozzle as it was mechanically advanced (via electrically driven chain drive) over the top of all test plants/pots. This application simulates a typical commercial field herbicide application.
(§6) In the post-emerge test, a commercial non-ionic surfactant was also included (0.25% v/v) to enhance wetting of the leaf surfaces of target plants. Immediately after application, test units of the pre-emerge applications were watered at the soil surface to incorporate the test materials. Subsequently, these test units were bottom-watered. Post-emerge test units were always bottom-watered.
(§7) At 14 days after application of the test materials, phytotoxicity ratings were recorded. A rating scale of 0-100 was used as previously described in Research Methods in Weed Science, 2nd edition, B. Truelove, Ed., Southern Weed Science Society, Auburn University, Auburn, Ala. 1977. Briefly, “0” corresponds to no damage and “100” corresponds to complete death of all plants in the test unit. This scale was used both to determine efficacy against weed species and damage to crop species. Herbicide activity data for various compounds of this invention, which are shown by compound No. in Tables 1-8, are shown in Tables 11 and 12.

[7] = tested on: green foxtail (Setaria viridis, SETVI); experiment: as above; settings: phytotoxicity rating 0-100, 14 days after application
Excerpt: as §3, §4, §5, §6, §7

[8] = tested on: ivyleaf morningglory (Ipomoea hederacea, IPOHE); experiment: as above; settings: phytotoxicity rating 0-100, 14 days after application
Excerpt: as §3, §4, §5, §6, §7

[9] = tested on: sicklepod (Cassia obtusifolia, CASOB); experiment: as above; settings: phytotoxicity rating 0-100, 14 days after application
Excerpt: as §3, §4, §5, §6, §7

[10] = tested on: lambsquarters (Chenopodium album, CHEAL); experiment: as above; settings: phytotoxicity rating 0-100, 14 days after application
Excerpt: as §3, §4, §5, §6, §7

[11] = tested on: barnyardgrass (Echinochloa crus-galli, ECHCG); experiment: as above; settings: phytotoxicity rating 0-100, 14 days after application
Excerpt: as §3, §4, §5, §6, §7

[12] = tested on: large crabgrass (Digitaria sanguinalis, DIGSA); experiment: as above; settings: phytotoxicity rating 0-100, 14 days after application
Excerpt: as §3, §4, §5, §6, §7

[13] = tested on: velvetleaf (Abutilon theophrasti, ABUTH); experiment: Post-emerge test, greenhouse herbicide activity screening; settings: post-emerge, 14 days after application, rating scale 0-100
Excerpt: as §3, §4, §5, §6, §7

[14] = tested on: green foxtail (Setaria viridis, SETVI); experiment: as above; settings: post-emerge, 14 days after application, rating scale 0-100
Excerpt: as §3, §4, §5, §6, §7

[15] = tested on: ivyleaf morningglory (Ipomoea hederacea, IPOHE); experiment: as above; settings: post-emerge, 14 days after application, rating scale 0-100
Excerpt: as §3, §4, §5, §6, §7

[16] = tested on: sicklepod (Cassia obtusifolia, CASOB); experiment: as above; settings: post-emerge, 14 days after application, rating scale 0-100
Excerpt: as §3, §4, §5, §6, §7

[17] = tested on: lambsquarters (Chenopodium album, CHEAL); experiment: as above; settings: post-emerge, 14 days after application, rating scale 0-100
Excerpt: as §3, §4, §5, §6, §7

[18] = tested on: barnyardgrass (Echinochloa crus-galli, ECHCG); experiment: as above; settings: post-emerge, 14 days after application, rating scale 0-100
Excerpt: as §3, §4, §5, §6, §7

[19] = tested on: redroot pigweed (Amaranthus retroflexus, AMARE); experiment: as above; settings: post-emerge, 14 days after application
Excerpt: as §3, §4, §5, §6, §7

[20] = tested on: large crabgrass (Digitaria sanguinalis, DIGSA); experiment: as above; settings: post-emerge, 14 days after application, rating scale 0-100
Excerpt: as §3, §4, §5, §6, §7

[21] = 63 g ai/ha, rating scale 0-100 (0 no damage, 100 complete death)
[22] = 250 g ai/ha, rating scale 0-100

Row | SMILES | phytotoxicity rating RICE (crop damage) ([1]; 63 g ai/ha) | phytotoxicity rating RICE (crop damage) ([1]; 250 g ai/ha) | phytotoxicity rating CORN (crop damage) ([2]; 63 g ai/ha) | phytotoxicity rating CORN (crop damage) ([2]; 250 g ai/ha) | Pre-emerge Herbicidal Activity RICE ([3]; 63 g ai/ha) | Pre-emerge Herbicidal Activity RICE ([3]; 250 g ai/ha) | Pre-emerge Herbicidal Activity CORN ([4]; 63 g ai/ha) | Pre-emerge Herbicidal Activity CORN ([4]; 250 g ai/ha) | Pre-emerge Herbicidal Activity AMARE ([5]; 63 g ai/ha) | Pre-emerge Herbicidal Activity AMARE ([5]; 250 g ai/ha) | Pre-emerge Herbicidal Activity ABUTH ([6]; 63 g ai/ha) | Pre-emerge Herbicidal Activity ABUTH ([6]; 250 g ai/ha) | Pre-emerge Herbicidal Activity SETVI ([7]; 63 g ai/ha) | Pre-emerge Herbicidal Activity SETVI ([7]; 250 g ai/ha) | Pre-emerge Herbicidal Activity IPOHE ([8]; 63 g ai/ha) | Pre-emerge Herbicidal Activity IPOHE ([8]; 250 g ai/ha) | Pre-emerge Herbicidal Activity CASOB ([9]; 63 g ai/ha) | Pre-emerge Herbicidal Activity CASOB ([9]; 250 g ai/ha) | Pre-emerge Herbicidal Activity CHEAL ([10]; 63 g ai/ha) | Pre-emerge Herbicidal Activity CHEAL ([10]; 250 g ai/ha) | further results
1 | COc1c(Cl)ccc(-n2c(=O)cc(C(F)(F)F)n(C)c2=O)c1NC(=O)c1ccc2ccccc2c1 [2-202] | 20 | 60 | 15 | 30 | 40 | 90 | 0 | 50 | 100 | 100 | 100 | 100 | 40 | 100 | 100 | 100 | 30 | 80 | 100 | 100 | Pre-emerge Herbicidal Activity ECHCG ([11]; 63 g ai/ha): 90; Pre-emerge Herbicidal Activity ECHCG ([11]; 250 g ai/ha): 100; Pre-emerge Herbicidal Activity DIGSA ([12]; 63 g ai/ha): 30; Pre-emerge Herbicidal Activity DIGSA ([12]; 250 g ai/ha): 100; phytotoxicity rating ABUTH ([13]; 63 g ai/ha): 100; phytotoxicity rating ABUTH ([13]; 250 g ai/ha): 100; phytotoxicity rating SETVI ([14]; 63 g ai/ha): 30; phytotoxicity rating SETVI ([14]; 250 g ai/ha): 40; phytotoxicity rating IPOHE ([15]; 63 g ai/ha): 100; phytotoxicity rating IPOHE ([15]; 250 g ai/ha): 100; phytotoxicity rating CASOB ([16]; 63 g ai/ha): 100; phytotoxicity rating CASOB ([16]; 250 g ai/ha): 100; phytotoxicity rating CHEAL ([17]; 63 g ai/ha): 100; phytotoxicity rating CHEAL ([17]; 250 g ai/ha): 100; phytotoxicity rating ECHCG ([18]; 63 g ai/ha): 10; phytotoxicity rating ECHCG ([18]; 250 g ai/ha): 40; phytotoxicity rating AMARE [19, 21]: 100; phytotoxicity rating AMARE [19, 22]: 100; phytotoxicity rating DIGSA ([20]; 63 g ai/ha): 0; phytotoxicity rating DIGSA ([20]; 250 g ai/ha): 30
2 | COc1c(Cl)cc(F)c(-n2c(=O)cc(C(F)(F)F)n(C)c2=O)c1NC(=O)OCc1cc(C)ccc1C [4-38] | 35 | 50 | 40 | 85 | 35 | 60 | 10 | 20 | 100 | 100 | 80 | 100 | 100 | 100 | 60 | 50 | 30 | 60 | 100 | 100 | Pre-emerge Herbicidal Activity ECHCG ([11]; 63 g ai/ha): 30; Pre-emerge Herbicidal Activity ECHCG ([11]; 250 g ai/ha): 60; Pre-emerge Herbicidal Activity DIGSA ([12]; 63 g ai/ha): 95; Pre-emerge Herbicidal Activity DIGSA ([12]; 250 g ai/ha): 100; phytotoxicity rating ABUTH ([13]; 63 g ai/ha): 100; phytotoxicity rating ABUTH ([13]; 250 g ai/ha): 100; phytotoxicity rating SETVI ([14]; 63 g ai/ha): 60; phytotoxicity rating SETVI ([14]; 250 g ai/ha): 80; phytotoxicity rating IPOHE ([15]; 63 g ai/ha): 100; phytotoxicity rating IPOHE ([15]; 250 g ai/ha): 100; phytotoxicity rating CASOB ([16]; 63 g ai/ha): 90; phytotoxicity rating CASOB ([16]; 250 g ai/ha): 100; phytotoxicity rating CHEAL ([17]; 63 g ai/ha): 100; phytotoxicity rating CHEAL ([17]; 250 g ai/ha): 100; phytotoxicity rating ECHCG ([18]; 63 g ai/ha): 50; phytotoxicity rating ECHCG ([18]; 250 g ai/ha): 50; phytotoxicity rating AMARE [19, 21]: 100; phytotoxicity rating AMARE [19, 22]: 100; phytotoxicity rating DIGSA ([20]; 63 g ai/ha): 40; phytotoxicity rating DIGSA ([20]; 250 g ai/ha): 40
3 | COc1c(Cl)cc(F)c(-n2c(=O)cc(C(F)(F)F)n(C)c2=O)c1NC(=O)OCc1cc(F)ccc1F [4-39] | 60 | 60 | 70 | 100 | 80 | 80 | 70 | 90 | 100 | 100 | 100 | 100 | 100 | 100 | 80 | 100 | 30 | 90 | 100 | 100 | Pre-emerge Herbicidal Activity ECHCG ([11]; 63 g ai/ha): 60; Pre-emerge Herbicidal Activity ECHCG ([11]; 250 g ai/ha): 80; Pre-emerge Herbicidal Activity DIGSA ([12]; 63 g ai/ha): 100; Pre-emerge Herbicidal Activity DIGSA ([12]; 250 g ai/ha): 100; phytotoxicity rating ABUTH ([13]; 63 g ai/ha): 100; phytotoxicity rating ABUTH ([13]; 250 g ai/ha): 100; phytotoxicity rating SETVI ([14]; 63 g ai/ha): 80; phytotoxicity rating SETVI ([14]; 250 g ai/ha): 90; phytotoxicity rating IPOHE ([15]; 63 g ai/ha): 100; phytotoxicity rating IPOHE ([15]; 250 g ai/ha): 100; phytotoxicity rating CASOB ([16]; 63 g ai/ha): 100; phytotoxicity rating CASOB ([16]; 250 g ai/ha): 100; phytotoxicity rating CHEAL ([17]; 63 g ai/ha): 100; phytotoxicity rating CHEAL ([17]; 250 g ai/ha): 100; phytotoxicity rating ECHCG ([18]; 63 g ai/ha): 60; phytotoxicity rating ECHCG ([18]; 250 g ai/ha): 90; phytotoxicity rating AMARE [19, 21]: 100; phytotoxicity rating AMARE [19, 22]: 100; phytotoxicity rating DIGSA ([20]; 63 g ai/ha): 50; phytotoxicity rating DIGSA ([20]; 250 g ai/ha): 80
